# Test results as given in US3954780A, “Propionic acid derivatives” (Innothera, priority 1970, dated 1976).
# Structures can show the parent of a compound that is named as a salt. Where two headings read alike, the source gives them in different places.
# Legend:
# isolated rat duodenum = assay: Spasmolytic activity of papaverinic type, barium chloride contracture; details: Tyrode 38°; for EC50: read-out: Spasmolytic activity Papaverinic type DE 50 (converted)
# Protocol: a. To show activity of the papaverinic type, the contracturant used is barium chloride acting on the isolated rat duodenum.
# The average activity of the substances studied has been effected by determining graphically their DE 30 and DE 50 these being expressed in μg for 20 ml of bath.
# [1] = Acute toxicity in the mouse (DL50, method of Miller and Tainter); details: in vivo, read-out: DL 50 (the source's name)
# From the text: The acute toxicity of the amine ester derivatives of β-[ benzo(b)thienyl-3]propionic acid have been studied in the mouse by intraperitoneal and oral routes, the products being administered in an isotonic solution of sodium chloride, 0.9%, or in suspension in a dilute aqueous solution of carboxymethyl cellulose.
# The calculation of the DL50 has been effected according to the method of MILLER and TAINTER (MILLER. L.C., TAINTER M.L. - Proc. Soc. Exptl. Biol. Med. 1944-57-261,264).
# [2] = system: isolated ileum of the guinea-pig; assay: Spasmolytic activity of atropinic type, acetylcholine chloride contracture; details: Tyrode 33°; for EC50: Cavia porcellus, read-out: Spasmolytic activity Atropinic type DE 50 (converted)
# From the text: b. To show activity of atropinic type the contracturant used is acetylcholine chloride acting on the isolated ileum of the guinea-pig. […]
# skin reflex = assay: Local anaesthetic activity, conduction anaesthesia (method of Moukhtar); assay type: in vivo; details: for average number of stimulations for the derivative studied n: intradermal 0.20 ml
# From the text: The method of MOUKHTAR has been chosen to show the activity of the derivatives studied on conduction anaesthesia (A. MOUKHTAR, C.R. Soc. Biol. 1909-66-187,189).
# The reference local anaesthetic substance used in the tests has in each case been procaine hydrochloride in 0.5% solution in an 0.9% isotonic solution of NaCl. The three concentrations used to study the local anaesthetic activity of the new derivatives are 0.50, 0.25 and 0.10%, the vehicle being the isotonic 0.9% solution of NaCl.
# The average anaesthetic activity of the substances chosen is expressed comparatively to that of the reference product chosen, by calculating the ratio of the average number n of the stimulations necessary to obtain the appearance of the skin reflex in the case of the derivatives studied, to the average number (n') of the stimulation determined for the reference substance.
# The procaine hydrochloride and the derivatives studied are administered by the intradermal route at the rate of 0.20 ml per injection.
# [3] = system: acute oedema provoked by serotonine in the rat; assay: Anti-serotonic activity, serotonine-induced acute paw oedema; assay type: in vivo; details: 50 mg/kg oral, 30 minutes before serotonine
# Protocol: This has been researched in the rat by the technique of the acute oedema localised in the metatarsal region, provoked by the injection of 0.05 ml of a 0.01% solution of serotonine (sulphate of 5-hydroxy-tryptamine-creatinine) in an isotonic solution of sodium chloride.
# The plethysmometric measurements of the paw having been subjected to the injection have been effected before, and at different times after, the injection of the serotonine.
# The derivatives to be studied have been administered by the oral route 30 minutes before the serotonine.
Compound,Spasmolytic activity Papaverinic type DE 30 (isolated rat duodenum),EC50 (isolated rat duodenum) [µg/mL],LD50 ([1]; ip) [mg/kg],EC50 [2] [µg/mL],Spasmolytic activity Atropinic type DE 30 [2],average number of stimulations for the derivative studied n (skin reflex; 0.10 g/100 ml),average number of stimulations for the derivative studied n (skin reflex; 0.25 g/100 ml),average number of stimulations for the derivative studied n (skin reflex; 0.50 g/100 ml),local anaesthetic activity n/n' (skin reflex; derivative 0.10 g/100 ml vs procaine hydrochloride 0.50 g/100 ml),local anaesthetic activity n/n' (skin reflex; derivative 0.25 g/100 ml vs procaine hydrochloride 0.50 g/100 ml),local anaesthetic activity n/n' (skin reflex; derivative 0.50 g/100 ml vs procaine hydrochloride 0.50 g/100 ml),LD50 ([1]; v.o. (oral) route) [mg/kg],average percentage reduction in oedema after 1 hour [3] [%],average percentage reduction in oedema after 2 hours [3] [%]
C=CCC(Cc1csc2ccccc12)C(=O)OCCN1CCCCCC1 (stereo not shown) [Compound 5],13.0 μg for 20 ml of bath,1,150 ± 17,9,95 μg/20 ml of bath,–,–,–,–,–,–,–,–,–
C=CCC(Cc1csc2ccccc12)C(=O)OCCCN(C)C (stereo not shown) [Compound 6],9.0 μg for 20 ml of bath,1,~120,–,–,–,–,–,–,–,–,–,–,–
"C=CCC(Cc1csc2ccccc12)C(=O)OCCCN(CC)CC (stereo not drawn) [Compound 7, citrate of the N,N-diethylamino propyl esters of x-allyl-β-[benzo(b)thienyl-3]propionic acid]",2.2 μg for 20 ml of bath,0.225,210 ± 10,16.2,170 μg/20 ml of bath,12.2,18.9,29.5,0.3,0.6,1.0,1290 ± 80,27.6,36.6
C=CCC(Cc1csc2ccccc12)C(=O)OC(C)CN1CCCC1 (stereo not shown) [Compound 11],4.0 μg for 20 ml of bath,0.6,270 ± 59,–,–,–,–,–,–,–,–,–,–,–
O=C(OCCN1CCCC1)C(Cc1cccs1)Cc1csc2ccccc12 (stereo not shown) [Compound 37],6.8 μg for 20 ml of bath,0.65,320 ± 21,4,50 μg/20 ml of bath,–,–,–,–,–,–,–,–,–
O=C(OCCN1CCCCC1)C(Cc1cccs1)Cc1csc2ccccc12 (stereo not shown) [Compound 38],6.0 μg for 20 ml of bath,0.8,–,10,95 μg/20 ml of bath,–,–,–,–,–,–,–,–,–
CN(C)CCCOC(=O)C(Cc1cccs1)Cc1csc2ccccc12 (stereo not shown) [Compound 41],4.3 μg for 20 ml of bath,0.525,–,2.3,24 μg/20 ml of bath,–,–,–,–,–,–,–,–,–
CCN(CC)CCCOC(=O)C(Cc1cccs1)Cc1csc2ccccc12 (stereo not shown) [Compound 42],3.5 μg for 20 ml of bath,0.85,240 ± 18,15,190 μg/20 ml of bath,–,–,–,–,–,–,–,–,–
O=C(OCCCN1CCCC1)C(Cc1cccs1)Cc1csc2ccccc12 (stereo not shown) [Compound 43],7.0 μg for 20 ml of bath,1.25,160 ± 11,–,–,–,–,–,–,–,–,–,–,–
